Assay results as given in publication PMC4801481 (Biochemistry, 2015).
Where two headings read alike, the source gives them in different places.

What was measured:
[1] = in the absence of high salt; cited from earlier work
[2] = Solubility of Rev protein; type: physicochemical; details: in the absence of RNA
[3] = tested on: stem IA (HIV-1 RRE RNA hairpin); assay: NMR of Rev complexes with stem IA; type: binding; details: 288 K
[4] = tested on: stem IIB (HIV-1 RRE RNA hairpin); assay: NMR of Rev complexes with stem IIB; type: binding; details: 288 K

Substance | solubility [1] | solubility [2] | RNA imino resonances on RevDO binding ([3]; 1D 1H NMR, pH 6.5, 0.1 M KCl) | number of backbone amide resonances ([3]; 1H–15N HSQC, 15N-RevDO bound to IA, 0.4 mM, pH 6.5) | arginine Hε protons ([3]; 1H–15N HSQC, RevDO bound to IA) | 1H–15N HSQC peak appearance ([3]; 15N-RevDO bound to IA, 0.4 mM, pH 6.5) | RNA imino resonances on RevDO binding ([4]; 1D 1H NMR, pH 6.5, 0.1 M KCl) | number of backbone amide resonances ([4]; 1H–15N HSQC, 15N-RevDO bound to IIB, 0.4 mM, pH 6.5) | arginine Hε protons ([4]; 1H–15N HSQC, RevDO bound to IIB) | imino proton of Trp45 ([4]; 1H–15N HSQC, RevDO complexes, IIB versus IA) | 1H–15N HSQC peak appearance ([4]; 15N-RevDO bound to IIB, 0.4 mM, pH 6.5)
Rev protein: viral regulatory protein Rev of HIV-1 | poorly soluble in the absence of high salt | poor solubility of Rev in the absence of RNA | – | – | – | – | – | – | – | – | –
RevDO: Truncated HIV-1 Rev (residues 9–64) with mutated dimerization (L12 → S, L60 → R) and higher-order oligomerization (L18 → Q, I55 → N) surfaces | – | – | almost identical to those obtained with the Rev–ARM peptide | ~40 backbone amide resonances | mostly absent with IA | fewer, broader peaks | almost identical to those obtained with the Rev–ARM peptide | ~50 backbone amide resonances | well resolved with IIB | observed only with IIB | reasonably well-resolved peaks
